Read-outs that look alike come from different tables or passages of the source.
Columns and labels:
Assay in all cases: Kinase inhibitory activity profiling of RI-962@10 µM (406 kinases, Eurofins)
Format in all cases: biochemical
[1] = molecular target: panel of human kinases (kinase named in endpoint) (Homo sapiens, UniProt O00506); conditions: 10 µM; read-out: Activity (%), STK25(h)
Outline: (§1)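 Radiometric filter-binding kinase assays: enzyme preincubated 15 min with compound in 8 mM MOPS pH 7.0, 0.2 mM EDTA, 250 μM peptide substrate, 10 mM magnesium acetate, 10 μM [γ-33P]-ATP. Reaction started with Mg/ATP, run 40 min at room temperature, stopped with phosphoric acid; 33P incorporation read by scintillation counting. Other kinases by similar protocols.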

[2] = molecular target: panel of human kinases (kinase named in endpoint) (Homo sapiens, UniProt Q02763, Y897S); conditions: 10 µM; read-out: Activity (%), Tie2(Y897S)(h)
Outline: as §1

[3] = molecular target: panel of human kinases (kinase named in endpoint) (Homo sapiens, UniProt O00443); conditions: 10 µM; read-out: Activity (%), PI3KC2a(h)
Outline: as §1

[4] = molecular target: panel of human kinases (kinase named in endpoint) (Homo sapiens, UniProt P46734); conditions: 10 µM; read-out: Activity (%), MKK3(h)
panel of human kinases (kinase named in endpoint) (Homo sapiens, UniProt P46734), sequence (P46734 whole entry): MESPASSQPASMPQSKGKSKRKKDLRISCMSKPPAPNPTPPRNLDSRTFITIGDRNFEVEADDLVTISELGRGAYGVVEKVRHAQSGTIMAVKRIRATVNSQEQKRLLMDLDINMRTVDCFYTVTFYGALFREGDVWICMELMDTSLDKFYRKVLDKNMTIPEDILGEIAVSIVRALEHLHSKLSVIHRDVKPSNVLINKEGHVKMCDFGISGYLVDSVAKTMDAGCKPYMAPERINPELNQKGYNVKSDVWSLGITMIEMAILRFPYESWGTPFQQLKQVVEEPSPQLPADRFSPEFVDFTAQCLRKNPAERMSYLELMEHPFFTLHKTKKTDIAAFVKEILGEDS
Outline: as §1

[5] = molecular target: panel of human kinases (kinase named in endpoint) (Homo sapiens, UniProt Q16832); conditions: 10 µM; read-out: Activity (%), DDR2(h)
Outline: as §1

[6] = molecular target: panel of human kinases (kinase named in endpoint) (Homo sapiens, UniProt O60674); conditions: 10 µM; read-out: Activity (%), JAK2(h)
Outline: as §1

[7] = molecular target: panel of human kinases (kinase named in endpoint) (Homo sapiens, UniProt P24941); conditions: 10 µM
Outline: as §1

[8] = molecular target: panel of human kinases (kinase named in endpoint) (Homo sapiens, UniProt Q96PY6); conditions: 10 µM; read-out: Activity (%), NEK1(h)
Outline: as §1

[9] = molecular target: panel of human kinases (kinase named in endpoint) (Homo sapiens, UniProt P29597); conditions: 10 µM; read-out: Activity (%), TYK2(h)
panel of human kinases (kinase named in endpoint) (Homo sapiens, UniProt P29597), sequence (P29597 whole entry): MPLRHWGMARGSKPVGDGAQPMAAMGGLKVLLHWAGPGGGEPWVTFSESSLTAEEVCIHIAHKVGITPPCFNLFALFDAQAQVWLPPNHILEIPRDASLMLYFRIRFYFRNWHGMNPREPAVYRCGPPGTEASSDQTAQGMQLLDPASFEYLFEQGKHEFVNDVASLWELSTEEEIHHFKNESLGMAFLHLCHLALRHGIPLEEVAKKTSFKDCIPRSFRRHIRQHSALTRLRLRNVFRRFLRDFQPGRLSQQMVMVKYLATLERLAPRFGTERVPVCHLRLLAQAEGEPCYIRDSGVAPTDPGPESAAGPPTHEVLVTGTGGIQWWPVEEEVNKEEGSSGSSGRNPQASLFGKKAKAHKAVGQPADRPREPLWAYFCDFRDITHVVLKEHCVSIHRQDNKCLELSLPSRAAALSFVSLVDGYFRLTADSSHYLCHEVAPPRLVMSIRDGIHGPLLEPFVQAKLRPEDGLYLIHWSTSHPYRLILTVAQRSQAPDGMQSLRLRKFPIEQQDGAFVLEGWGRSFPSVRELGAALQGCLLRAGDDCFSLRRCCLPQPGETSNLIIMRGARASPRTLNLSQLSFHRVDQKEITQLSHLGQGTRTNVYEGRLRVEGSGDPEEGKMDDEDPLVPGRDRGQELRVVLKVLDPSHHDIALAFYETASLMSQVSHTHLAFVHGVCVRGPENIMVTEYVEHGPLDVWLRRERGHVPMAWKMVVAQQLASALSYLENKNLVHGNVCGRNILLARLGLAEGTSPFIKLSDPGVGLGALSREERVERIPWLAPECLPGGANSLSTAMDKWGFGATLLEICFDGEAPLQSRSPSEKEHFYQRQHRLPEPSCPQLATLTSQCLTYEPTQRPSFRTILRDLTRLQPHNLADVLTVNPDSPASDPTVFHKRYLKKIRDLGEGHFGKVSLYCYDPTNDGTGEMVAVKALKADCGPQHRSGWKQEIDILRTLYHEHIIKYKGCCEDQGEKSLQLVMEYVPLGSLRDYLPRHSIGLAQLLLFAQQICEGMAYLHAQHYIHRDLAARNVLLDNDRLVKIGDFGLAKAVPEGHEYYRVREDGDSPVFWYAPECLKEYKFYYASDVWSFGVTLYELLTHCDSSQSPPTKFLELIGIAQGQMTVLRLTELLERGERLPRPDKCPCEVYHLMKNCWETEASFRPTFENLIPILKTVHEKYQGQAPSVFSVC
Outline: as §1

[10] = molecular target: panel of human kinases (kinase named in endpoint) (Homo sapiens, UniProt P28482); conditions: 10 µM; read-out: Activity (%), MAPK2(h)
panel of human kinases (kinase named in endpoint) (Homo sapiens, UniProt P28482), sequence (P28482 whole entry): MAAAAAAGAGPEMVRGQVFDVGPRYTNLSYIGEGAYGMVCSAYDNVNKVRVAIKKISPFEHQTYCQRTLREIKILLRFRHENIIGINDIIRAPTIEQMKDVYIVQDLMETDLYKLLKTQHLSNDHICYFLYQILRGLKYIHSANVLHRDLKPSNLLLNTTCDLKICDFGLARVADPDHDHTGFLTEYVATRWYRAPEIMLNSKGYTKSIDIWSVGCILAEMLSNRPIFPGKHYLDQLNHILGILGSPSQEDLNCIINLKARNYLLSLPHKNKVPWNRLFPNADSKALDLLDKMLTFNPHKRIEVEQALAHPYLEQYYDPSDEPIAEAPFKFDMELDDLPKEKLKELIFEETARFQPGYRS
Outline: as §1

[11] = molecular target: panel of human kinases (kinase named in endpoint) (Homo sapiens, UniProt P21709); conditions: 10 µM; read-out: Activity (%), EphA1(h)
Outline: as §1

[12] = molecular target: panel of human kinases (kinase named in endpoint) (Homo sapiens, UniProt P07333); conditions: 10 µM; read-out: Activity (%), Fms(h)
panel of human kinases (kinase named in endpoint) (Homo sapiens, UniProt P07333), sequence (P07333 20-972): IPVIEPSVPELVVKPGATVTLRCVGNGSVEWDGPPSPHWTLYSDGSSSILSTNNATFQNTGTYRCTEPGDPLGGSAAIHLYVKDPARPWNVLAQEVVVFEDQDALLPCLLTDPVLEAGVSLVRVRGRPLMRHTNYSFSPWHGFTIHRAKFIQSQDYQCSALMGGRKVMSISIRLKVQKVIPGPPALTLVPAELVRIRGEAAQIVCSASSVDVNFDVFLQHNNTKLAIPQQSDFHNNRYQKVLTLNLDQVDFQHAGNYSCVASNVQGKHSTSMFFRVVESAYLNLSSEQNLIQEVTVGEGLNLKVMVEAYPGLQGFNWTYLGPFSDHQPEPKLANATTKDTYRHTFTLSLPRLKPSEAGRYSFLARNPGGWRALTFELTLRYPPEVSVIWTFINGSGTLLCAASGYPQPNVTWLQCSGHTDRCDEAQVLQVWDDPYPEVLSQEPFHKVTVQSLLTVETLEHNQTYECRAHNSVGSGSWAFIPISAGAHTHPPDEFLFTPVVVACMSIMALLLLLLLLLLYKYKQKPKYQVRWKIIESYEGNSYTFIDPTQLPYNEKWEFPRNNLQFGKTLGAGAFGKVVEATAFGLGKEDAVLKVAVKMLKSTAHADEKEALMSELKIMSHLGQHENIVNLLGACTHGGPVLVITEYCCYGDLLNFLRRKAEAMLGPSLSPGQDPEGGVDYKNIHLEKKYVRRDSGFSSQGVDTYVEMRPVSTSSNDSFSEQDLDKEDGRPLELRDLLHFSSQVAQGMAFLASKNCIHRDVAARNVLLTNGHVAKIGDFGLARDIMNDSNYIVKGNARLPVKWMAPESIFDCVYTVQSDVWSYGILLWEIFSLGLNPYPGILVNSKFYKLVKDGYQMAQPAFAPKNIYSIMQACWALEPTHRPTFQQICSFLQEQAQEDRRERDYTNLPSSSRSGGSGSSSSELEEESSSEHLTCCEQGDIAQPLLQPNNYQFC
Outline: as §1

[13] = molecular target: panel of human kinases (kinase named in endpoint) (Homo sapiens, UniProt Q16654); conditions: 10 µM; read-out: Activity (%), PDHK4(h)
Outline: as §1

[14] = molecular target: panel of human kinases (kinase named in endpoint) (Homo sapiens, UniProt P00519, Q252H); conditions: 10 µM; read-out: Activity (%), Abl (Q252H) (h)
Outline: as §1

[15] = molecular target: panel of human kinases (kinase named in endpoint) (Homo sapiens, UniProt Q00536); conditions: 10 µM; read-out: Activity (%), CDK16/cyclinY(h)
Outline: as §1

[16] = molecular target: panel of human kinases (kinase named in endpoint) (Homo sapiens, UniProt Q2M2I8); conditions: 10 µM; read-out: Activity (%), AAK1(h)
Outline: as §1

[17] = molecular target: panel of human kinases (kinase named in endpoint) (Homo sapiens, UniProt Q9UKI8); conditions: 10 µM; read-out: Activity (%), TLK1(h)
Outline: as §1

[18] = molecular target: panel of human kinases (kinase named in endpoint) (Homo sapiens, UniProt Q9UQ07); conditions: 10 µM; read-out: Activity (%), MOK(h)
panel of human kinases (kinase named in endpoint) (Homo sapiens, UniProt Q9UQ07), sequence (Q9UQ07 whole entry): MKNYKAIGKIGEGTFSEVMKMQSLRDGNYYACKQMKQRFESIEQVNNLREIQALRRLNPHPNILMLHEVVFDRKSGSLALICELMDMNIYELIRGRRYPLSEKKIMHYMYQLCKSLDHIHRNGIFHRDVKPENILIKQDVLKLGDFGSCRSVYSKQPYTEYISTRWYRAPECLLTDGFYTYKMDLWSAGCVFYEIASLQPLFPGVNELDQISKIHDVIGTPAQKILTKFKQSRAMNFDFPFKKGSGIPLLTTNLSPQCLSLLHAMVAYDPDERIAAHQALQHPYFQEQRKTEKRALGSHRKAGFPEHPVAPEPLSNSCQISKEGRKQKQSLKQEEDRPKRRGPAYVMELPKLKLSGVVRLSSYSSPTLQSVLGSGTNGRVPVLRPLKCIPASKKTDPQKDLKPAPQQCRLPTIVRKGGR
Outline: as §1

[19] = molecular target: panel of human kinases (kinase named in endpoint) (Homo sapiens, UniProt Q9C098); conditions: 10 µM; read-out: Activity (%), DCAMKL3(h)
Outline: as §1

[20] = molecular target: panel of human kinases (kinase named in endpoint) (Homo sapiens, UniProt Q13043); conditions: 10 µM; read-out: Activity (%), MST1(h)
Outline: as §1

[21] = molecular target: panel of human kinases (kinase named in endpoint) (Homo sapiens, UniProt Q9BYT3); conditions: 10 µM; read-out: Activity (%), STK33(h)
panel of human kinases (kinase named in endpoint) (Homo sapiens, UniProt Q9BYT3), sequence (Q9BYT3 whole entry): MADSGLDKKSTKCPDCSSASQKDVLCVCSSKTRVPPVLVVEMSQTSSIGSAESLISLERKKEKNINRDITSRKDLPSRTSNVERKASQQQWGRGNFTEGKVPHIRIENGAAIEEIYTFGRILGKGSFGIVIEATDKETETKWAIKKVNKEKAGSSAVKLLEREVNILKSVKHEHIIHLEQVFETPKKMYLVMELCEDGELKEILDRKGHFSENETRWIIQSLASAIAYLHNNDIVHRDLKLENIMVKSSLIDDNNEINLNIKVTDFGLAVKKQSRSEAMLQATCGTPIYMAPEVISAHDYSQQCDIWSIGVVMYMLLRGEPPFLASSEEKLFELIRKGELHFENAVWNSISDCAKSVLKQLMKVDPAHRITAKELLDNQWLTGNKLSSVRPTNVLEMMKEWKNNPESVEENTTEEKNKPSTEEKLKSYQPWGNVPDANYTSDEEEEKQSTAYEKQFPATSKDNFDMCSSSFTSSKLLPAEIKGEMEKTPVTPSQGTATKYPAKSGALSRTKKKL
Outline: as §1

[22] = molecular target: panel of human kinases (kinase named in endpoint) (Homo sapiens, UniProt Q02763); conditions: 10 µM; read-out: Activity (%), Tie2 (h)
Outline: as §1

[23] = molecular target: panel of human kinases (kinase named in endpoint) (Homo sapiens, UniProt Q16620); conditions: 10 µM; read-out: Activity (%), TrkB(h)
panel of human kinases (kinase named in endpoint) (Homo sapiens, UniProt Q16620), sequence (Q16620 32-822): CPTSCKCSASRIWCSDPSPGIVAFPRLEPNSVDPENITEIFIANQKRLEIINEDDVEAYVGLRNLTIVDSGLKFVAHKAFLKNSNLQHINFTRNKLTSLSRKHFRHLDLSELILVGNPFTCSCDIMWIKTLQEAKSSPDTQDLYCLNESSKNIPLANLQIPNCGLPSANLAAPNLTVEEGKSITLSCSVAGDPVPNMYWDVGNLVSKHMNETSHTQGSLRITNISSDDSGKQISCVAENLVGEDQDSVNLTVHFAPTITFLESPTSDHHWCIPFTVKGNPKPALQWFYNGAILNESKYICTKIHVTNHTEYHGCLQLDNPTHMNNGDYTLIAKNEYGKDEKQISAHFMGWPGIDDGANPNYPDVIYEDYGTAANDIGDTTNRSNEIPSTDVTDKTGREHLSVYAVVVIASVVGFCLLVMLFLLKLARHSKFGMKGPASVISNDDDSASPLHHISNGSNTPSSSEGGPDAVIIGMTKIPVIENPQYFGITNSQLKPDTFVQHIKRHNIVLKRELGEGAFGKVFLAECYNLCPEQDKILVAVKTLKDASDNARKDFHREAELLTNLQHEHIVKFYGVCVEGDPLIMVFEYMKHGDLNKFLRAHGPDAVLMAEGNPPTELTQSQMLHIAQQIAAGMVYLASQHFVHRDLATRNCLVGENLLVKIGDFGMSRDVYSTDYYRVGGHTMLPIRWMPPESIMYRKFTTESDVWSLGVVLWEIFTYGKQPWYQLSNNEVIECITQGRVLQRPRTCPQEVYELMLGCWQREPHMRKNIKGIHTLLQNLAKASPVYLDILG
Outline: as §1

[24] = molecular target: panel of human kinases (kinase named in endpoint) (Homo sapiens, UniProt Q99755); conditions: 10 µM; read-out: Activity (%), PIP5K1a(h)
Outline: as §1

[25] = molecular target: panel of human kinases (kinase named in endpoint) (Homo sapiens, UniProt Q00537); conditions: 10 µM; read-out: Activity (%), CDK17/cyclinY(h)
Outline: as §1

panel of human kinases (kinase named in endpoint) (Homo sapiens, UniProt O00506), sequence (O00506 whole entry): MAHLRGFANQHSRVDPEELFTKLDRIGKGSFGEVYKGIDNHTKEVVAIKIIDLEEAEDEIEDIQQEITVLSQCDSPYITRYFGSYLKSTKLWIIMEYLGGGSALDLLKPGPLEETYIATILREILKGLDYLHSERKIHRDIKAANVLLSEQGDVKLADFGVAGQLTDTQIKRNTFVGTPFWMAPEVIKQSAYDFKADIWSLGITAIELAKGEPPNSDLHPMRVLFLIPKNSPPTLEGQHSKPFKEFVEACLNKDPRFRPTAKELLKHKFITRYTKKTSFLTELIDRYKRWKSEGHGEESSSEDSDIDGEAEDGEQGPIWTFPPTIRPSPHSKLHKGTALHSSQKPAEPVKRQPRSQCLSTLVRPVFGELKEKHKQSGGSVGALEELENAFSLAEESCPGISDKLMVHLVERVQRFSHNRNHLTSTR

SMILES: CC(C)C(=O)Nc1nc2cc(-c3ccc4c(c3)c(C(=O)NC(C)c3ccccc3)cn4C)ccn2n1 (centres unmarked) [RI-962]
- activity at 10 µM [1]: 81%
- activity at 10 µM [2]: 69%
- activity at 10 µM [3]: 102%
- activity at 10 µM [4]: 103%
- activity at 10 µM [5]: 126%
- activity at 10 µM [6]: 107%
- activity at 10 µM ([7]; read-out: Activity (%), CDK2/cyclinA(h)): 122%
- activity at 10 µM ([7]; read-out: Activity (%), CDK2/cyclinE(h)): 92%
- activity at 10 µM [8]: 93%
- activity at 10 µM [9]: 113%
- activity at 10 µM [10]: 90%
- activity at 10 µM [11]: 97%
- activity at 10 µM [12]: 111%
- activity at 10 µM [13]: 75%
- activity at 10 µM [14]: 135%
- activity at 10 µM [15]: 121%
- activity at 10 µM [16]: 106%
- activity at 10 µM [17]: 69%
- activity at 10 µM [18]: 88%
- activity at 10 µM [19]: 100%
- activity at 10 µM [20]: 95%
- activity at 10 µM [21]: 85%
- activity at 10 µM [22]: 90%
- activity at 10 µM [23]: 126%
- activity at 10 µM [24]: 106%
- activity at 10 µM [25]: 124%
